Measured values from ChEMBL document CHEMBL1201862, “PubChem BioAssay data set” (2004).
Values joined by “and” are separate entries in the source; they are usually repeats but may differ in a detail not shown here. Equal entries are not always repeated.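 All cell lines were grown in 96-well plates and treated with compound for 48 hours. GI50 marks 50% less growth.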 Active and inactive are the calls of the source. No stated cut-off is given here; in the data, active = GI50 up to about 1.1 µM and inactive = higher.

Tests used:
Assay in all cases: growth of human tumour cells (NCI), 48 h
BT-549 = tested on: BT-549
NCI-H522 = tested on: NCI-H522
Hs-578T = tested on: Hs-578T
CAKI-1 = tested on: CAKI-1
CCRF-CEM = tested on: CCRF-CEM
SF-539 = tested on: SF-539
RPMI-8226 = tested on: RPMI-8226
U-251 = tested on: U-251
MDA-MB-231 = tested on: MDA-MB-231
TK-10 = tested on: TK-10
MOLT-4 = tested on: MOLT-4
SW-620 = tested on: SW-620
SR = tested on: SR
SF-295 = tested on: SF-295
NCI-H226 = tested on: NCI-H226
NCI/ADR-RES = tested on: NCI/ADR-RES
EKVX = tested on: EKVX
SK-OV-3 = tested on: SK-OV-3
SK-MEL-28 = tested on: SK-MEL-28
SF-268 = tested on: SF-268
SNB-75 = tested on: SNB-75
SK-MEL-2 = tested on: SK-MEL-2
OVCAR-5 = tested on: OVCAR-5
786-0 = tested on: 786-0
K562 = tested on: K562
OVCAR-8 = tested on: OVCAR-8
SK-MEL-5 = tested on: SK-MEL-5
HL-60 = tested on: HL-60
OVCAR-3 = tested on: OVCAR-3
UO-31 = tested on: UO-31
HCT-15 = tested on: HCT-15
HOP-62 = tested on: HOP-62
LOX IMVI = tested on: LOX IMVI
A498 = tested on: A498
Malme-3M = tested on: Malme-3M
HOP-92 = tested on: HOP-92
HCT-116 = tested on: HCT-116
SN12C = tested on: SN12C
T47D = tested on: T47D
M14 = tested on: M14
MCF7 = tested on: MCF7
ACHN = tested on: ACHN
COLO 205 = tested on: COLO 205
OVCAR-4 = tested on: OVCAR-4
IGROV-1 = tested on: IGROV-1
MDA-N = tested on: MDA-N
NCI-H460 = tested on: NCI-H460
MDA-MB-435 = tested on: MDA-MB-435
KM12 = tested on: KM12
A549 = tested on: A549
HT-29 = tested on: HT-29
RXF 393 = tested on: RXF 393
PC-3 = tested on: PC-3
DU-145 = tested on: DU-145
HCC 2998 = tested on: HCC 2998
UACC-62 = tested on: UACC-62
NCI-H23 = tested on: NCI-H23
UACC-257 = tested on: UACC-257

Measured: GI50

Cc1ccc(OCC2OC(n3cnc4c(Cl)ncnc43)CC2Oc2ccc(C)cc2)cc1 (stereo not given)
inactive: BT-549 20.2 µM and 18.5 µM | NCI-H522 2.27 µM and 1.71 µM | Hs-578T 6.84 µM and 4.7 µM | CAKI-1 2.21 µM and 1.94 µM | CCRF-CEM 4.78 µM and 5.09 µM | SF-539 22.9 µM and 15.8 µM | RPMI-8226 2.69 µM and 5.31 µM | U-251 1.97 µM and 2.55 µM | MDA-MB-231 9.51 µM and 5.35 µM | TK-10 30.5 µM and 45 µM | MOLT-4 2.48 µM and 2.49 µM | SW-620 2.07 µM and 3.43 µM | SR 2.66 µM and 3.29 µM | SF-295 20 µM and 14.9 µM | NCI-H226 11.9 µM and 20.8 µM | NCI/ADR-RES 12.4 µM and 19.2 µM | EKVX 3.06 µM and 2.84 µM | SK-OV-3 29.8 µM and 20 µM | SK-MEL-28 1.71 µM and 2.13 µM | SF-268 7.91 µM and 4.74 µM | SNB-75 26.1 µM and 15.8 µM | SK-MEL-2 12.4 µM and 17.3 µM | OVCAR-5 26.4 µM and 24.9 µM | 786-0 31.8 µM and 17.4 µM | K562 4.92 µM and 2.99 µM | OVCAR-8 8.93 µM and 8.3 µM | SK-MEL-5 15.4 µM and 18.7 µM | HL-60 2.29 µM and 1.72 µM

COc1ccc2c(C(=O)c3cn(CCN4CCOCC4)c4ccccc34)cccc2c1
inactive: OVCAR-3 13.6 µM | BT-549 > 95.5 µM | UO-31 > 32 µM | NCI-H522 6.65 µM | HOP-62 > 22 µM | LOX IMVI 22.3 µM | A498 > 100 µM | CAKI-1 > 46 µM | CCRF-CEM 4.45 µM | Malme-3M 15.8 µM | HOP-92 > 100 µM | SF-539 > 80 µM | HCT-116 27.2 µM | SN12C > 71.4 µM | RPMI-8226 21.2 µM | U-251 7.33 µM | MDA-MB-231 > 100 µM | T47D 38 µM | M14 > 31.1 µM | TK-10 > 100 µM | MCF7 5.01 µM | MOLT-4 15.1 µM | SW-620 31 µM | ACHN > 96.4 µM | COLO 205 58.9 µM | OVCAR-4 12.6 µM | IGROV-1 > 91 µM | MDA-N 37.8 µM | NCI-H460 4.65 µM | MDA-MB-435 8.26 µM | SR 47.5 µM | SF-295 5.6 µM | NCI-H226 > 100 µM | NCI/ADR-RES > 34.4 µM | KM12 3.95 µM | A549 6.76 µM | EKVX > 48.2 µM | SK-OV-3 4.22 µM | SK-MEL-28 > 62.4 µM | HT-29 53.6 µM | SF-268 > 80.2 µM | SNB-75 88.5 µM | RXF 393 > 67.6 µM | SK-MEL-2 > 100 µM | PC-3 30.8 µM | OVCAR-5 > 100 µM | DU-145 > 23.6 µM | 786-0 > 20.8 µM | HCC 2998 41.7 µM | UACC-62 > 29.6 µM | K562 36.6 µM | OVCAR-8 43 µM | SK-MEL-5 60 µM | NCI-H23 > 100 µM | UACC-257 75.9 µM | HL-60 18.3 µM
51.8 µM: HCT-15
